This passage reports IC50 and melting point results from patent US7612113B2, “Hydroxy tetrahydro-naphthalenylurea derivatives” (Xention Limited, priority 2002, dated 2009).

The melting point is the temperature of the solid-liquid transition.

Read-outs that look alike come from different tables or passages of the source.

The target of data set [1] is T1, human VR1 (Homo sapiens, UniProt Q8NER1).
T1 construct: expressed in transfected cells
The data set is described as follows: capsaicin-induced Ca2+ influx in the human VR1-transfected CHO cell line (Assay 1). It is filed as cell-based. As to conditions: 10 nM capsaicin, human VR1-CHOluc9aeq cells. The source says:
[Measurement of capsaicin-induced Ca^2+ influx in the human VR1-transfected CHO cell line] (Assay 1)
• (1) Establishment of the Human VR1-CHOluc9aeq Cell Line • Human vanilloid receptor (hVR1) cDNA was cloned from libraries of axotomized dorsal root ganglia (WO 00/29577). The cloned hVR1 cDNA was constructed with pcDNA3 vector and transfected into a CHOluc9aeq cell line. The cell line contains aequorin and CRE-luciferase reporter genes as read-out signals. The transfectants were cloned by limiting dilution in selection medium (DMEM/F12 medium (Gibco BRL) supplemented with 10% FCS, 1.4 mM Sodium pyruvate, 20 mM HEPES, 0.15% Sodium bicarbonate, 100 U/ml penicillin, 100 μg/ml streptomycin, 2 mM glutamine, non-essential amino acids and 2 mg/ml G418). Ca^2+ influx was examined in the capsaicin-stimulated clones. A high responder clone was selected and used for further experiments in the project. The human VR1-CHOluc9aeq cells were maintained in the selection medium and passaged every 3-4 days at 1-2.5×10^5 cells/flask ([…]). • (2) Measurement of Ca^2+ Influx Using FDSS-3000 • Human VR1-CHOluc9aeq cells were suspended in a culture medium which is the same as the selection medium except for G418 and seeded at a density of 1,000 cells per well into 384-well plates (black walled clear-base/Nalge Nunc International). Following the culture for 48 hrs the medium was changed to 2 μM Fluo-3 AM (Molecular Probes) and 0.02% Puronic F-127 in assay buffer (Hank's balanced salt solution (HBSS), 17 mM HEPES (pH7.4), 1 mM Probenecid, 0.1% BSA) and the cells were incubated for 60 min at. 25° C. After washing twice with assay buffer the cells were incubated with a test compound or vehicle for 20 min at 25° C. Mobilization of cytoplasmic Ca^2+ was measured by FDSS-3000 (λex=488 nm, λem=540 nm/Hamamatsu Photonics) for 60 sec after the stimulation with 10 nM capsaicin. Integral R was calculated and compared with controls. [Measurement of the Capsaicin-Induced Ca^2+ Influx in Primary Cultured Rat Dorsal Root Ganglia Neurons] (Assay 2) • (1) Preparation of Rat Dorsal Root Ganglia Neurons • New born Wister rats (5-11 days) were sacrificed and dorsal root ganglia (DRG) was removed. DRG was incubated with 0.1% trypsin (Gibco BRL) in PBS(−) (Gibco BRL) for 30 min at 37° C., then a half volume of fetal calf serum (FCS) was added and the cells were spun down. The DRG neuron cells were resuspended in Ham F12/5% FCS/5% horse serum (Gibco BRL) and dispersed by repeated pipetting and passing through 70 μm mesh Falcon). The culture plate was incubated for 3 hours at 37° C. to remove contaminating Schwann cells. Non-adherent cells were recovered and further cultured in laminin-coated 384 well plates (Nunc) at 1×10^4 cells/50 μl/well for 2 days in the presence of 50 ng/ml recombinant rat NGF (Sigma) and 50 μM 5-fluorodeoxyuridine (Sigma). • (2) Ca^2+ Mobilization Assay • DRG neuron cells were washed twice with HBSS supplemented with 17 mM HEPES (pH 7.4) and 0.1% BSA. After incubating with 2 μM fluo-3AM (Molecular Probe), 0.02% PF127 (Gibco BRL) and 1 mM probenecid (Sigma) for 40 min at 37° C., cells were washed 3 times. The cells were incubated with VR1 antagonists or vehicle (dimethylsulphoxide) and then with 1 μM capsaicin in FDSS-6000 (λex=480 nm, λem=520 nm/Hamamatsu Photonics). The fluorescence changes at 480 nm were monitored for 2.5 min. Integral R was calculated and compared with controls. [Organ Bath Assay to Measure the Capsaicin-Induced Bladder Contraction] (Assay 3)
The data corresponds to the compounds as yielded by solid phase synthesis and thus to levels of purity of about 40 to 90%. For practical reasons, the compounds are grouped in four classes of activity as follows: IC50=A(<or=)0.1 μM<B(<or=)0.5 μM<C(<or=)1 μM<D

Where [2] appears, read: Table 3, read-out: activity class.
The mark [3] stands for this setting: Table 1, read-out: activity class.
Where [4] appears, read: read-out: In vitro activity class.

T1 sequence (Q8NER1 whole entry): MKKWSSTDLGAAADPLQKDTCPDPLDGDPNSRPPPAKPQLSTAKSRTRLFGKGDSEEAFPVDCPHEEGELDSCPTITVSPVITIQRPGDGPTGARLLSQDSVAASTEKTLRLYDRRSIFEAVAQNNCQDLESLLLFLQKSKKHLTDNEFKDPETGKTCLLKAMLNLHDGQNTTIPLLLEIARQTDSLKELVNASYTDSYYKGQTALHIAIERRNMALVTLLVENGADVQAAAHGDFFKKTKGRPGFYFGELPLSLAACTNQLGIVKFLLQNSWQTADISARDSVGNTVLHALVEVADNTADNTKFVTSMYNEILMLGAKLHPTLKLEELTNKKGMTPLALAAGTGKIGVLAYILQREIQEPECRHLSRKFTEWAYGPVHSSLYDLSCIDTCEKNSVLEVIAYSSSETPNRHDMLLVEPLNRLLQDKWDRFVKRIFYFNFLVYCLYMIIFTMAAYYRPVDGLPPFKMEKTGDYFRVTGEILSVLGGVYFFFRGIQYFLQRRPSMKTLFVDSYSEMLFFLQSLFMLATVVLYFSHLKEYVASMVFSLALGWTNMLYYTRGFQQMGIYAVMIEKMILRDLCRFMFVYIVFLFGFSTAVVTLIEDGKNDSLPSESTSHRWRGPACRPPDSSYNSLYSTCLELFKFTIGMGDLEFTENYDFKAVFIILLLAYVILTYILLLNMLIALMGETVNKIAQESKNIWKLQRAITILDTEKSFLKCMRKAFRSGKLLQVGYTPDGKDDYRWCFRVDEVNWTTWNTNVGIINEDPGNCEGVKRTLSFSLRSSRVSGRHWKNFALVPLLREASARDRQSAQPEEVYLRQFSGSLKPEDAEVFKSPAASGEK

In turn, `O=C(Nc1cccc(OC(F)(F)F)c1)Nc1cccc2c1CC(O)CC2` (centres unmarked) [Example 5-11] yielded a melting point of 203 to 204 °C. Moreover, the IC50 in data set [1] (setting [2]) was less than 100 nM.
`O=C(Nc1cccc(F)c1)Nc1cccc2c1CC(O)CC2` (centres unmarked) [Example 5-3] yielded a melting point of 204 to 205 °C. Moreover, the IC50 in data set [1] (setting [2]) lay in the range of 100 to 500 nM.
`CCOC(=O)c1cccc(NC(=O)Nc2cccc3c2CC(O)CC3)c1` (centres unmarked) [Example 2-11] returned a melting point of 176 to 178 °C. Besides, in data set [1] (setting [3]), the IC50 is less than 100 nM.
On to `Cc1cccc(NC(=O)Nc2cccc3c2CC(O)CC3)c1` (centres unmarked) [Example 2-18], for which the melting point fell in the range of 198 to 200 °C. For the same compound, in data set [1] (setting [3]), the IC50 is 100 to 500 nM.
Turning to `O=C(Nc1cccc(C(F)(F)F)c1)Nc1cccc2c1CC(O)CC2` (centres unmarked) [Example 2-8], the melting point lay within 227 to 228 °C. For the same compound, the IC50 in data set [1] (setting [3]) was less than 100 nM.
The corresponding values for `O=C(Nc1ccc(Cl)c(C(F)(F)F)c1)Nc1ccc(Br)c2c1CC(O)CC2` (centres unmarked) [Example 2-38] are 234 to 235 °C and less than 100 nM.
As for `Cc1ccc(CNC(=O)Nc2cccc3c2CC(O)CC3)cc1` (centres unmarked) [Example 2-26], the melting point lay in the range of 230 to 232 °C. For the same compound, the IC50 in data set [1] (setting [3]) was less than 100 nM.
As to `O=C(NCc1ccccc1)Nc1cccc2c1CC(O)CC2` (centres unmarked) [Example 2-22], the melting point was in the range of 198 to 200 °C. For the same compound, the IC50 in data set [1] (setting [3]) lay within 100 to 500 nM.
Compound `O=C(Nc1ccccc1Br)Nc1cccc2c1CC(O)CC2` (centres unmarked) [Example 5-4] displayed a melting point of 196 to 197 °C. In data set [1] (setting [2]), the IC50 was 100 to 500 nM.
In turn, `CN(C)c1ccc(NC(=O)Nc2cccc3c2CC(O)CC3)cc1` (centres unmarked) [Example 2-21] came in with a melting point of 206 to 207 °C. The IC50 in data set [1] (setting [3]) is greater than 1000 nM.
For `O=C(NCc1cccc(F)c1)Nc1cccc2c1CC(O)CC2` (centres unmarked) [Example 2-28], the melting point lay in the range of 193 to 194 °C. Moreover, the IC50 in data set [1] (setting [3]) lay in the range of 100 to 500 nM.
`COc1ccc(NC(=O)Nc2cccc3c2CC(O)CC3)cc1` (centres unmarked) [Example 2-6] returned a melting point of 213 to 215 °C. Also, the IC50 in data set [1] (setting [3]) is greater than 1000 nM.
Turning to `O=C(Nc1ccc(Cl)c(Cl)c1)Nc1cccc2c1CC(O)CC2` (centres unmarked) [Example 2-17], the melting point is 234 to 235 °C. Further, in data set [1] (setting [3]), the IC50 is less than 100 nM.
`CC(C)c1ccc(NC(=O)Nc2cccc3c2CC(O)CC3)cc1` (centres unmarked) [Example 2-19] returned a melting point of 186 to 188 °C. The IC50 in data set [1] (setting [3]) was less than 100 nM.
In turn, `O=C(Nc1ccc(Oc2ccccc2)cc1)Nc1cccc2c1CC(O)CC2` (centres unmarked) [Example 2-20] gave a melting point of 188 to 190 °C. Also, the IC50 in data set [1] (setting [3]) is less than 100 nM.
On to `O=C(NCc1ccc(F)cc1)Nc1cccc2c1CC(O)CC2` (centres unmarked) [Example 2-29], for which the melting point was 218 to 221 °C. The IC50 in data set [1] (setting [3]) was less than 100 nM.
Compound `O=C(Nc1ccc(OC(F)(F)F)cc1)Nc1cccc2c1CC(O)CC2` (centres unmarked) [Example 5-1, N-(7-hydroxy-5,6,7,8-tetrahydro-naphthalen-1-yl)-N′-(4-trifluoromethoxy-phenyl)-urea] came in with a melting point of 198 to 200 °C. Also, the IC50 in data set [1] (setting [4]) is less than 100 nM.
For the compound `O=C(Nc1ccc(Cl)cc1)Nc1cccc2c1CC(O)CC2` (centres unmarked) [Example 2-4], the melting point lay in the range of 229 to 231 °C. Further, in data set [1] (setting [3]), the IC50 was less than 100 nM.
For the compound `O=C(Nc1ccc2ccccc2c1)Nc1cccc2c1CC(O)CC2` (centres unmarked) [Example 2-14], the melting point lay within 212 to 214 °C. In addition, the IC50 in data set [1] (setting [3]) was less than 100 nM.
As for `CN(C(=O)Nc1ccc(Cl)c(C(F)(F)F)c1)c1cccc2c1CC(O)CC2` (centres unmarked) [Example 2-40], the melting point is 136 to 137 °C. Also, the IC50 in data set [1] (setting [3]) is 100 to 500 nM.
The corresponding values for `O=C(Nc1ccccc1Cl)Nc1cccc2c1CC(O)CC2` (centres unmarked) [Example 2-2] are 197 to 199 °C and 100 to 500 nM.
As to `COc1cccc(NC(=O)Nc2cccc3c2CC(O)CC3)c1` (centres unmarked) [Example 2-5], the melting point fell in the range of 187 to 189 °C. In addition, the IC50 in data set [1] (setting [3]) was 100 to 500 nM.
For the compound `O=C(Nc1cccc(Oc2ccccc2)c1)Nc1cccc2c1CC(O)CC2` (centres unmarked) [Example 5-10], the melting point fell in the range of 194 to 195 °C. Besides, the IC50 in data set [1] (setting [2]) was less than 100 nM.
In turn, `Cc1ccccc1CNC(=O)Nc1cccc2c1CC(O)CC2` (centres unmarked) [Example 2-23] displayed a melting point of 224 to 226 °C. For the same compound, the IC50 in data set [1] (setting [3]) was in the range of 100 to 500 nM.
The corresponding values for `O=C(Nc1ccccc1C(F)(F)F)Nc1cccc2c1CC(O)CC2` (centres unmarked) [Example 2-7] are 217 to 219 °C and 500 to 1000 nM.
As for `O=C(Nc1ccc(Br)cc1)Nc1cccc2c1CC(O)CC2` (centres unmarked) [Example 2-16], the melting point is 237 to 239 °C. Besides, the IC50 in data set [1] (setting [3]) is less than 100 nM.
`O=C(NCc1ccc(C(F)(F)F)cc1)Nc1cccc2c1C[C@H](O)CC2` [Example 4-4, N-{(R)-7-hydroxy-5,6,7,8-tetrahydro-naphthalen-1-yl}-N′-(4-trifluoromethyl-benzyl)-urea] yielded a melting point of 204.3 °C. The IC50 in data set [1] (setting [4]) was less than 100 nM.
For `O=C(Nc1cccc(I)c1)Nc1cccc2c1CC(O)CC2` (centres unmarked) [Example 5-13], the melting point is 226 to 228 °C. Moreover, the IC50 in data set [1] (setting [2]) is less than 100 nM.
Regarding `O=C(Nc1ccccc1)Nc1cccc2c1CC(O)CC2` (centres unmarked) [Example 2-34], the melting point was in the range of 198 to 199 °C. Further, the IC50 in data set [1] (setting [3]) was 500 to 1000 nM.
The compound `CC1(O)CCc2cccc(NC(=O)Nc3ccc(Cl)c(C(F)(F)F)c3)c2C1` (centres unmarked) [Example 2-41] returned a melting point of 213 °C. For the same compound, the IC50 in data set [1] (setting [3]) was 100 to 500 nM.
Compound `Cc1cccc(CNC(=O)Nc2cccc3c2CC(O)CC3)c1` (centres unmarked) [Example 2-24] came in with a melting point of 194 to 196 °C. Further, in data set [1] (setting [3]), the IC50 lay in the range of 100 to 500 nM.
In the same order, the values of `O=C(Nc1cccc(Cl)c1)Nc1cccc2c1CC(O)CC2` (centres unmarked) [Example 2-3] are 216 to 218 °C and less than 100 nM.
With `O=C(Nc1ccc(C(F)(F)F)cc1)Nc1cccc2c1CC(O)CC2` (centres unmarked) [Example 2-9], the melting point was in the range of 222 to 224 °C. In data set [1] (setting [3]), the IC50 was less than 100 nM.
The compound `O=C(NCc1ccccc1F)Nc1cccc2c1CC(O)CC2` (centres unmarked) [Example 2-27] had a melting point of 184 to 187 °C. Besides, the IC50 in data set [1] (setting [3]) fell in the range of 100 to 500 nM.
